# From US12121503B2, “Antiviral treatments” (priority 2006, dated 2024)
# Several values for one entry are separate records, joined by “and”; a condition that tells them apart may be missing. Identical values can stand only once. Marks after values point to notes of the source that are not given here.
# Experiments:
# [1] = test system: Influenza A/Duck/MN/152518 (H5N1); assay type: in vivo, BALB/c mice
# influenza virus [2] = conditions: cited from earlier work
# influenza virus [3] = conditions: cited from earlier work; remark: listed apart in the source
# influenza infection = conditions: oral administration over a period of days; cited from earlier work
# [4] = Plasma levels after i.v. administration in mice
# [5] = Toxicity controls: uninfected mice treated in parallel; conditions: for Tox Controls Surv/Total: 21 days
# [6] = Phase I clinical study in healthy human volunteers, plasma concentration after intravenous and intramuscular administration
# [7] = intramuscular, healthy human volunteers
smiles,measurement,setting,value
"CCC(CC)C(NC(C)=O)[C@@H]1[C@H](O)[C@@H](C(=O)O)C[C@H]1NC(=N)N (stereo partly drawn) [Peramivir, (1S,2S,3R,4R)-3-(1-Acetamido-2-ethylbutyl)-4-guanidino-2-hydroxycyclopentane-carboxylic acid]","Infected, Treated Mice Surv/Total",[1]; 21 days,10/10** and 5/10
same,Effect on lung parameters,"[1]; mouse, in vivo",moderately inhibitory
same,Infected animals surviving the infection,"[1]; mouse, in vivo",100%
same,"Protection of mice (prevention of deaths, lessening of lung consolidation, inhibition of lung virus titers)","[1]; mouse, in vivo",significantly protective
same,Activity against the influenza virus in vitro,influenza virus [2],marked activity
same,Activity against the influenza virus in experimentally infected mice,influenza virus [3],marked activity
same,Therapeutic effect on influenza infection in humans,influenza infection,suboptimal therapeutic effect
same,Time at relatively high levels in the plasma,[4],at least 6 hours
same,Tox Controls Surv/Total,[5]; 3 mg/kg i.v.,3/3
same,Tox Controls Surv/Total,[5]; 10 mg/kg i.v.,3/3
same,Tox Controls Surv/Total,[5]; 20 mg/kg i.v.,3/3
same,Survival and weight of toxicity controls,"[5]; i.v., run in parallel",all survived and gained weight
same,Tolerability in toxicity controls,"[5]; i.v., run in parallel",well tolerated
same,half-life,"[6]; human, plasma, iv",> 12 h
same,Kinetics of plasma concentrations,[6]; [7],linear kinetics
same,Plasma half life,[6]; [7],unusually extended
same,Kinetics of plasma concentrations,"[6]; intravenous, healthy human volunteers",linear kinetics
